{"source": "patent US9969970B2", "about": "“DNA-cell conjugates” (The Regents of the University of California, priority 2009, dated 2018)", "key": {"Jurkat cells [1]": {"system": "Jurkat cells", "test": "Single cell acidification on the bifunctional microelectrode array, rotenone stimulation", "type": "cell-based", "method": "Metabolic monitoring was accomplished as follows: Cells were suspended at a concentration of 10^6/ml, and the suspension was flowed into the microfluidic device. Cell suspensions were flowed into the channel using 1 mL syringes with Teflon tubing. Where Jurkat and primary T cells were monitored simultaneously they were labeled with CellTracker Green and Red dyes, respectively, as previously described and mixed in an equal ratio. Following a 5 min incubation to allow DNA-based cell capture, the unbound cells were rinsed away (5 ul/min for 3 min) with the low-buffered media. After rinsing, the pH response was monitored electrochemically for 10 min. After this recording, cells were released from the electrodes by heating the device to 55° C. and applying a strong rinse (200 uL/min) with the low-buffered media. Once rinsed and allowed to return to 37° C., the device could be reloaded with cells. This allowed for multiple measurements to be taken with a single cell preparation.\nVoltage measurements were recorded between the iridium oxide electrode and a distant FLEXREF Ag/AgCl reference electrode from World Precision Instruments. An identical iridium oxide electrode outside the cell area was used to compensate for any sensor drift. The sensor electrodes were connected to a National Instruments PCI-6031E data acquisition card with 16 bit analog to digital conversion. The digitized signals were monitored using a custom Labview VI, sampling in multiplex at 3 hz. Voltage signals were processed with a 1% Loess filter using Peak Fit software to reduce noise.\n(§1) Incubation with rotenone would be expected to interfere with the mitochondrial electron transport chain, causing cells to shift to lactic acid fermentation to complete the glycolytic cycle. The resulting excretion of lactic acid should then increase the rate of acidification in the cellular environment. In the experiment, captured cells were first incubated under normal conditions to establish a baseline rate of acidification (˜8.8 milli-pH/min) under aerobic metabolism."}, "Jurkat cells [2]": {"system": "Jurkat cells", "test": "Bulk cell acidification control with rotenone", "type": "cell-based", "settings": "1 μM rotenone, low-buffered media, ~10^6 cells/mL, 37° C.", "method": "as §1"}, "Jurkat cells [3]": {"system": "Jurkat cells", "test": "Quantification of DNA attached to the cell surface", "type": "cell-based", "settings": "Ac4ManNAz-fed cells, Staudinger ligation"}, "Jurkat cells [4]": {"system": "Jurkat cells", "test": "AFM measurement of de-adhesion force, cell-cantilever", "settings": "cantilever attachment method", "method": "FIG. 18. AFM measurement of de-adhesion force. A) Six sample traces for a single cell are shown in shades of gray, with the average trace shown in black. At zero distance, the cell is in full contact with the cantilever, which is applying a positive force. As distance increases, the cantilever is pulled away from the glass slide surface, causgin the cell-cantilever linkage to rupture and result in the zero-force, no-contact region. The force of d-adhesion was calculated as the difference between the curve minimum and the horizontal no=contact region. B) Adhesion forces were measured under different retraction rates (15.7 and 8.2 μm/s) and contact forces (400 and 200 pN) for the DNA, ConA, and antibody systems. Data were obtained by measuring size de-adhesion events on more than four different cells. Error bards represent one standard deviation.\nOur assay to determine the strength of cantilever attachment was designed such that cell-cantilever adhesions were fewer in number, and therefore weaker overall, than DNA-based adhesions between a cell and the complementarily functionalized glass slide. […] The force of de-adhesion was measured for each attachment method using two different retraction rates and two different contact forces (FIG. 18a). The measured force of de-adhesion increased with contact force and retraction rate across all attachment methods, as predicted by the Bell model. […]"}, "[5]": {"settings": "20 bp DNA duplex; ConA-mannose; antibody-antigen; cited from earlier work"}, "Jurkat cells [6]": {"system": "Jurkat cells", "test": "Bulk cell growth and morphology in the presence of adhesion molecules", "type": "cell-based", "settings": "adhesion molecule in suspension; DNA-coated cells with complementary sequence", "method": "(§2) FIG. 17. Comparison of biomolecule-based adhesion methods. a) Bulk cell growth rates were first determined in the presence of the adhesion molecules. A suspension of Jurkat cells was combined with ConA or anti-CD3 IgG, and a solution of DNA-coated cells was combined with the complementary DNA strands. At various time points the total number of cells was counted. The control sample was grown in the absence of any adhesion molecules. b) To evaluate cell capture efficiency, solutions of 20 μM FITC-labeled ssDNA, 20 μM FITC-labeled ConA, and 6 μM FITC-labeled anti-CD3 IgG were applied to aldehyde-coated glass slides, and the biomolecules were attached by reductive amination. Solutions containing 1×10^7 Jurkat cell mL^−1 were then introduced onto the resulting slides. The samples were incubated for 10 min at room temperature and then washed with two portions of phosphate-buffered saline (PBS) before evaluation. c) To evaluate cell viability, cells were immobilized on DNA, ConA, and anti-CD3 IgG coated aldehyde slides. […] The cells were evaluated within 1 h by fluorescence microscopy. * ConA and antibody immobilized cells that were partially stained by annexin were counted as cells undergoing apoptosis. […]\nThe effects of the adhesion molecules on the viability of the cells were assessed using two different methods. […]"}, "Jurkat cells [7]": {"system": "Jurkat cells", "test": "Cell capture, morphology and annexin V/PI viability of cells immobilized on biomolecule-coated slides", "type": "cell-based", "method": "as §2, with “slides.” for “slides. The samples were incubated for 10 min at room temperature and then washed with two portions of phosphate-buffered saline (PBS) before evaluation. c) To evaluate cell viability, cells were immobilized on DNA, ConA, and anti-CD3 IgG coated aldehyde slides.”\nThe extent of apoptosis of surface bound cells was determined by annexin V/propidium iodide staining (BD Biosciences). […] The cells were imaged by fluorescence microscopy and the number of non-viable cells counted after one hour. […]"}}, "note": "{Phos} = phosphine group for Staudinger ligation to cell-surface azides"}
{"compound": "C=C(C)[C@H]1Cc2c(ccc3c2O[C@@H]2COc4cc(OC)c(OC)cc4[C@@H]2C3=O)O1", "note": "[rotenone]", "values": [{"measurement": "increase in the acidification rate", "setting": "Jurkat cells [1]; 10 μM rotenone versus baseline", "value": "three-fold"}, {"measurement": "time to increase in acidification rate", "setting": "Jurkat cells [1]; after addition of 10 μM rotenone", "value": "≤ 1", "unit": "min"}, {"measurement": "acidification rate", "setting": "Jurkat cells [1]; single Jurkat cells after 10 μM rotenone added to channel, baseline ~8.8 milli-pH/min", "value": "~27.7", "unit": "milli-pH/min"}, {"measurement": "acidification over 60 min compared to identical untreated cells", "setting": "Jurkat cells [2]", "value": "more than twice"}]}
{"compound": "Phosphine-modified ssDNA: phosphine-modified ssDNA (5′-phos-GTAACGATCCAGCTGTCACT-3′) ligated to cell-surface azides by Staudinger ligation (DNA GTAACGATCCAGCTGTCACT; DNA, 5' {Phos}, backbone not given here)", "values": [{"measurement": "ssDNA molecules per cell", "setting": "Jurkat cells [3]", "value": "≈ 270,000"}]}
{"compound": "concanavalin A [ConA]", "values": [{"measurement": "zero-force attachment events in de-adhesion measurements", "setting": "Jurkat cells [4]", "value": 12, "unit": "%"}, {"measurement": "force of one individual linkage", "setting": "[5]", "value": 47, "unit": "pN"}, {"measurement": "cell growth over a three-day period", "setting": "Jurkat cells [6]", "value": "aggregated and were no longer alive after 12 h"}, {"measurement": "apoptotic and necrotic cells, annexin V and PI staining", "setting": "Jurkat cells [7]; 24 and 48 h after immobilization", "value": "significantly higher numbers of apoptotic cells"}, {"measurement": "morphology of immobilized cells", "setting": "Jurkat cells [7]; after 48 h on coated slides", "value": "significant changes"}]}
